Reference: patent publication US20120015925A1, “NOVEL BENZOTHIAZEPINE AND BENZOTHIEPINE COMPOUNDS” (ASAHI KASEI PHARMA CORPORATION, priority 2004, published 2012)

Legend:
[1] = tested on: rats dosed cholic acid; experiment: Lowering effect on bile acid concentrations in portal vein blood in rats dosed cholic acid; format: in vivo, rat
Procedure: In the present Test Example, a lowering effect on bile acid concentrations in portal vein blood in rats dosed cholic acid was evaluated according to the method described in Jpn. Pharmacol. Ther., Vol. 24 Supplement, 1996, 103(S-577)-110(S-584).
That is, SD (IGS) strain male rats at 7 to 9 weeks of age were fasted one day before the administration date. […] The blood was collected from the portal vein 2 hours after the forced oral administration, and a total bile acid value in serum was measured to examine the effect of the test compound (n=6). As a control, another group (n=6) merely received cholic acid (200 mg/kg), to which the same procedure was applied. The cholic acid value was measured using the commercially available kit (brand name: Total Bile Acid-Test Wako, supplied form Wako Pure Chemical Industries). Defining the value in the control group to which no test compound had been administered as being 100%, a reduction rate (%) of the bile acid value when a certain amount of the test compound had been administered was calculated.

[2] = biological target: T1, human IBAT (Homo sapiens, UniProt Q12908); experiment: In vitro assay using Cos 7 cells, transiently expressed human IBAT; format: cell-based; conditions: 37° C., 60 minutes
T1 sequence (Q12908 1-348): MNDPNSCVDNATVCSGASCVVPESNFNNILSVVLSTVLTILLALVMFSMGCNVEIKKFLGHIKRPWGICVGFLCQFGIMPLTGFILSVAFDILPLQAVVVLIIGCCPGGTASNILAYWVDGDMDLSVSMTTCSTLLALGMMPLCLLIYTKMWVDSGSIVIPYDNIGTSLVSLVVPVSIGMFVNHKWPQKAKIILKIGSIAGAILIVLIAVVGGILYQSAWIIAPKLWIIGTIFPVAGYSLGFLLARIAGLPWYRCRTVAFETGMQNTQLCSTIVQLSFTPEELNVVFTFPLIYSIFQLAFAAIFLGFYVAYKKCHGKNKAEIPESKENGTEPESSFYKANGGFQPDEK
Method in brief: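 Cos 7 cells transfected with human or rat IBAT cDNA were assayed one day later in Hanks buffer with 25 mM glucose and 10 mM HEPES (pH 7.4) containing compound. [^3H]-taurocholate (8 μM final) uptake ran 60 min at 37° C. Cells were washed with 1 mM taurocholate, lysed in NaOH, and counted by liquid scintillation.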

[3] = biological target: T2, rat IBAT (Rattus norvegicus, UniProt Q62633); experiment: In vitro assay using Cos 7 cells, transiently expressed rat IBAT; format: cell-based; conditions: 37° C., 60 minutes
T2 sequence (Q62633 1-348): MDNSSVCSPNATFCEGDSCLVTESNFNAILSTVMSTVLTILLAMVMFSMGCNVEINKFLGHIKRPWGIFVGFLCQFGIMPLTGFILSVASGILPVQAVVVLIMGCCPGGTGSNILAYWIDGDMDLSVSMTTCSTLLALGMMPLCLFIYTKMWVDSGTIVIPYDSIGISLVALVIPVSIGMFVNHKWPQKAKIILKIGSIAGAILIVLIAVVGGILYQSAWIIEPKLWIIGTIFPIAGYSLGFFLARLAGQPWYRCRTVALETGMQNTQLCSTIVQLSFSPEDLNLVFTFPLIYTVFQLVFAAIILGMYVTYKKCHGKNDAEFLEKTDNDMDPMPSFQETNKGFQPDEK
Procedure: In the present Test Example, an in vitro assay of compounds using Cos 7 cells as to inhibitory activity on transiently expressed human IBAT or rat IBAT transporter was performed according to the method described in Am. J. Physiol., 274, G157-169.
That is, […] cells/well of Cos 7 cells were seeded in a 24-well plate, and after one day, the cells were transfected with 0.3 μg/well of cDNA of human IBAT or rat IBAT using FuGENE6 (supplied from Roche). After culturing for one day after the transfection, the cells were washed once with the assay buffer, i.e., Hanks buffer containing 25 mM glucose and 10 mM HEPES (pH 7.4). The assay buffer was then replaced with the assay buffer containing the test compound. [^3H]-Taurocholate at a final concentration of 8 μM was added thereto and incubated at 37° C. for 60 minutes so that [^3H]-taurocholate was taken into Cos 7 cells by the action of human IBAT or rat IBAT. The cells were washed twice with the assay buffer containing 1 mM taurocholate, and subsequently lysed with 0.2 M NaOH to stop the reaction. The cell lysate was added to 4 mL of liquid scintillation cocktail, which was then thoroughly vortexed. Then the radioactivity was measured using the liquid scintillation counter.

[4] = tested on: Caco-2 cell; experiment: Gastrointestinal toxicity: cytotoxicity against Caco-2 cell (LDH activity); format: cell-based, human; conditions: 2 hours, LDH activity in medium relative to cell lysis agent = 100%
Procedure: That is, 10,000 cells/well of Caco-2 cells (purchased from ATCC) were seeded in a 96-well plate [MEM-E medium, 10% FBS (Fetal Bovine Serum), 1% NEAA (Non Essential Amino Acid) solution, supplied from Gibco]. After culturing for 48 hours, the test compound diluted with the medium was added to each well. After 2 hours, 50 μL of the medium was collected, and an LDH activity in the medium was measured using an LDH activity measurement kit (CytoTox96 Non-Radioactive Cytotoxicity Assay, supplied from Promega). Defining the LDH activity of the Caco-2 cells treated with a cell lysis agent as being 100%, the relative activity was calculated as a index of the cytotoxicity.

[5] = tested on: rats with partial ligation of the bile duct dosed bile acid; experiment: Model for hepatic disorder associated with cholestasis (partial bile duct ligation model), Protocol A: AST, ALT, ALP; format: in vivo, rat; conditions: Table 11, Protocol A, ursodeoxycholic acid 50 mg/kg oral twice per day for 3.5 days, N=8, mean±standard error
From the text: (§1) In the present Test Example, a model for the hepatic disorder caused by partial ligation of the bile duct was employed with reference to Kanno's method (Liver, 43, Suppl(1):A126, 2002).
(§2) That is, to the SD (IGS) strain male rats at 7 to 10 weeks of age, the partial ligation of the bile duct was given with opening the abdominal cavity under anesthesia with pentobarbital. Before the operation, the blood was collected from femoral vein, in order to obtain the value before the administration. From the day after the operation, 200 mg/kg of bile acid and the test compound were orally administered forcibly twice per day for 3.5 days (Protocol A). Without giving the partial ligation of the bile duct, 200 mg/kg of bile acid and the test compound were also orally administered forcibly twice per day for 3.5 days (Protocol B). In both cases, the test compound was dissolved or suspended in distilled water or an aqueous solution of 1% HCO 60 (Nippon Chemicals). To the control group, saline was administered. As comparative examples, 25 mg/kg of cholestyramine (supplied from Sigma) or 50 mg/kg of ursodeoxycholic acid (supplied from Mitsubishi Pharma) was administered. For considering the effect of the operation, sham operation (sham group) was performed in some cases. The blood was collected from the abdominal aorta 6 hours after the drug administration on the final day of the experiment. AST (GOT), ALT (GPT) and ALP in the blood were measured using measurement kits (GOT II-HA Test Wako, GPT II-HA Test Wako and Alkaline Phosphor HA Test Wako, all were supplied from Wako Pure Chemical Industries) and using an automatic analyzer (Nitech ANALAYZER SUPER Z818).

[6] = tested on: rats dosed bile acid; experiment: Model for hepatic disorder associated with cholestasis, Protocol B (bile acid without partial ligation): AST, ALT, ALP; format: in vivo, rat; conditions: Table 13, Protocol B, ursodeoxycholic acid 50 mg/kg oral twice per day for 3.5 days, N=8, mean±standard error
From the text: as §1, §2

[7] = tested on: rats fed cholesterol food; experiment: Blood cholesterol lowering effect in rats fed cholesterol food; format: in vivo, rat; conditions: 0.3 mg/kg per administration, oral, twice per day; SD (IGS) male rats; serum 3 hours after final administration
Procedure: In the present Test Example, a blood cholesterol lowering effect on rats fed cholesterol food was evaluated according to the method described in J. Lipid Res., 1995, 36, 1098-1105.
That is, the food containing 0.4% cholesterol and 0.5% bile acid was given to SD (IGS) strain male rats at 7 to 9 weeks of age for 5 days in advance of the test date, to increase blood cholesterol levels. The rats in which the blood cholesterol level had been obviously elevated from the level before loading the cholesterol food were selected as the subjects in the test. Colestimide (brand name: Cholebine 70% granules, supplied from Mitsubishi Tokyo Pharmaceutical Inc.) which is an anion exchange resin drug was suspended in distilled water, and the test compound was dissolved or suspended in distilled water. They were orally administered forcibly twice per day everyday from the starting date (each n=8). The blood was collected from jugular vein 3 hours after the drug administration on the final day of the experiment, and the cholesterol level in serum was measured to examine the effect of the test compound. As a control, another group (n=8) was merely fed cholesterol food, to which distilled water (1 mL/kg) was administered and the same procedure was applied. The total cholesterol value and the HDL cholesterol value were measured using commercially available kits. The value obtained by subtracting the HDL cholesterol value from the total cholesterol value was regarded as an LDL+VLDL cholesterol value.

[8] = tested on: Caco-2 cells; experiment: Measurement of permeability through Caco-2 cell; format: in vitro ADME, human; conditions: 2 hours
Procedure: Permeability of the compound described in Examples through Caco-2 cells was studied with reference to Artursson Per et al.'s method (Journal of Pharmaceutical Sciences, 79(6): 476-482:1990).
Transwell cell culture chamber (Costar) having a membrane filter coated with collagen (3 μm pores, 0.33 cm^2 growth area) was placed on a 24-well plate. Caco-2 cells (purchased from ATCC) were seeded at the amount of 6.6×10^4 cells/filter (2×10^5 cells/cm^2) (D-MEM medium, 10% FBS (Fetal Bovine Serum), 0.1 mM NEAA (Non Essential Amino Acid), 100 U/mL penicillin, 100 μg/mL streptomycin, supplied from Gibco, and 25 mM glucose). Each Transwell cell culture chamber was placed in each well in a 24-well plate. 0.75 mL of the medium was filled in an external chamber and 0.15 mL of the medium was filled in an internal chamber. The medium was changed every 2 to 3 days, and 18 to 25 days after seeding when a single layer of Caco-2 cells was formed, the cells were used for the test.
In the test for examining the permeability of the compound, the Caco-2 cells cultured in the chamber were used. The internal and external chamber solutions were replaced twice with Hanks balanced salt solution (HBSS) containing 25 mM glucose, 10 mM Hepes and 0.05% Tween 80. […] A permeability coefficient (Papp) was calculated from the formula Papp=dQ/dt/(Co×A). […]

[9] = 0.1 mg/kg oral, surfactant HCO-60 0.1%, cholic acid 200 mg/kg, portal vein blood 2 hours after administration
[10] = 0.1 mg/kg oral, surfactant Tween 20 0.05%, cholic acid 200 mg/kg, portal vein blood 2 hours after administration
[11] = 0.1 mg/kg oral with cholic acid 200 mg/kg, portal vein serum total bile acid 2 hours after, control = 100%, surfactant HCO-60 (##)

## CCCCC1(CCCC)CS(=O)(=O)c2ccc(N(C)C)cc2C(c2cccc(NC(=S)Nc3ccc(C[N+]45CCC(CC4)CC5)cc3)c2)N1.[Br-] (racemic) [EXAMPLE 3695]
[1]; [9]
  BILE ACID REDUCTION RATE (%) IN RAT MODEL WITH CHOLIC ACID LOADING: 23%
[2]; [3H]-taurocholate 8 μM uptake
  IC50: 37 nM
[3]; [3H]-taurocholate 8 μM uptake
  IC50: 5 nM
[4]
  CELL TOXICITY AGAINST Caco2 3 μM: <1%
  CELL TOXICITY AGAINST Caco2 10 μM: <1%
  CELL TOXICITY AGAINST Caco2 30 μM: <1%

## C[C@H](CCC(=O)O)[C@H]1CC[C@H]2[C@@H]3[C@@H](O)C[C@@H]4C[C@H](O)CC[C@]4(C)[C@H]3CC[C@]12C [Comparative Example 2, ursodeoxycholic acid, reference compound]
[1]; [10]
  BILE ACID REDUCTION RATE (%) IN RAT MODEL WITH CHOLIC ACID LOADING: 3%
[5]; control group 200 ± 81
  ALT: 98 ± 25 IU/L
[5]; control group 400 ± 160
  AST: 256 ± 64 IU/L
[5]; control group 1120 ± 410
  ALP: 785 ± 120 IU/L
[6]; control group 82 ± 17
  ALT: 62 ± 9 IU/L
[6]; control group 157 ± 35
  AST: 109 ± 11 IU/L
[6]; control group 593 ± 77
  ALP: 453 ± 58 IU/L

## CCCCC1(CCCC)CS(=O)(=O)c2ccc(N(C)C)cc2C(c2cccc(NC(=S)CCCCC[N+]34CCC(c5ccccc5)(CC3)CC4)c2)N1.[Br-] (stereo not drawn) [EXAMPLE 3853]
[1]; [9]
  BILE ACID REDUCTION RATE (%) IN RAT MODEL WITH CHOLIC ACID LOADING: 36%
[2]; [3H]-taurocholate 8 μM uptake
  IC50: 28 nM
[3]; [3H]-taurocholate 8 μM uptake
  IC50: 9 nM
[4]
  CELL TOXICITY AGAINST Caco2 3 μM: <1%
  CELL TOXICITY AGAINST Caco2 10 μM: <1%
  CELL TOXICITY AGAINST Caco2 30 μM: <1%

## CCCCC1(CCCC)CS(=O)(=O)c2ccc(N(C)C)cc2C(c2cccc(NC(=S)CCCCCCC[N+]34CCC(CC3)CC4)c2)N1.[Br-] (stereo not drawn) [EXAMPLE 3932]
[1]; [10]
  BILE ACID REDUCTION RATE (%) IN RAT MODEL WITH CHOLIC ACID LOADING: 30%
[2]; [3H]-taurocholate 8 μM uptake
  IC50: 36 nM
[3]; [3H]-taurocholate 8 μM uptake
  IC50: 9 nM

## CCCCC1(CCCC)CS(=O)(=O)c2ccc(N(C)C)cc2C(c2cccc(NC(=S)Nc3ccc(C[N+]45CCC(c6ccccc6)(CC4)CC5)c(C)c3)c2)N1.[Br-] (stereo not drawn) [EXAMPLE P341]
[7]
  LDL + VLDL REDUCTION RATE (%) IN CHOLESTEROL FED RAT MODEL (THERAPEUTIC MODEL): 33%
[1]; [11]
  BILE ACID REDUCTION RATE (%) IN RAT MODEL WITH CHOLIC ACID LOADING: 32%
[2]; [3H]-taurocholate 8 μM
  IC50: 22 nM
[3]; [3H]-taurocholate 8 μM
  IC50: 4.3 nM
[4]
  CELL TOXICITY AGAINST Caco2 10 μM: <1%
  CELL TOXICITY AGAINST Caco2 30 μM: <1%

## CCCCC1(CCCC)CS(=O)(=O)c2ccc(N(C)C)cc2C(c2cccc(NC(=S)Nc3ccc(C[N+]45CCC(c6ccccc6)(CC4)CC5)cc3F)c2)N1.[Br-] (stereo not drawn) [EXAMPLE P342]
[7]
  LDL + VLDL REDUCTION RATE (%) IN CHOLESTEROL FED RAT MODEL (THERAPEUTIC MODEL): 46%
[1]; [11]
  BILE ACID REDUCTION RATE (%) IN RAT MODEL WITH CHOLIC ACID LOADING: 39%
[2]; [3H]-taurocholate 8 μM uptake
  IC50: 15 nM
[3]; [3H]-taurocholate 8 μM uptake
  IC50: 4.8 nM
[4]
  CELL TOXICITY AGAINST Caco2 10 μM: <1%
  CELL TOXICITY AGAINST Caco2 30 μM: <1%

## CC(C)NCC(O)COc1cccc2ccccc12 (stereo not drawn) [Propranolol]
[8]; 100 μM in internal chamber, HBSS pH 7.4, 37° C.
  PERMEATION RATIO (PERMEATION × 10^−6 cm/s): 29.4 × 10^−6 cm/s
[8]; 100 μM, 37° C., pH 7.4
  permeability coefficient (Papp) through Caco-2 cells: high permeability coefficients
